Assay results published in the NIST ThermoML archive (doi:10.1021/acs.jced.8b00058).
Numbers after ± are expanded uncertainties.

Legend:
[1] = mn = molality of the nth substance listed, in mol/kg; settings: 100 kPa, Liquid; for speed of sound: Frequency=3 MHz, Single path-length method; for mass density: Vibrating tube method
[2] = 100 kPa, Liquid, Frequency=3 MHz, Single path-length method

OCCOCCO [diethylene glycol] + O
[1]
Settings	mass density, m1 = 0.09849 [kg/m3]	mass density, m1 = 0.1974 [kg/m3]	mass density, m1 = 0.295 [kg/m3]	mass density, m1 = 0.4101 [kg/m3]	mass density, m1 = 0.5006 [kg/m3]	speed of sound, m1 = 0.09849 [m/s]	speed of sound, m1 = 0.1974 [m/s]	speed of sound, m1 = 0.295 [m/s]	speed of sound, m1 = 0.4101 [m/s]	speed of sound, m1 = 0.5006 [m/s]
293.15 K	999.647 ± 1	1001.03 ± 1	1002.36 ± 1	1003.86 ± 1	1004.99 ± 1	1487.7 ± 2	1493.1 ± 2	1498.1 ± 2	1504.1 ± 2	1508.3 ± 2
298.15 K	998.458 ± 1	999.78 ± 1	1001.03 ± 1	1002.49 ± 1	1003.59 ± 1	1501.2 ± 2	1506 ± 2	1510.8 ± 2	1516.2 ± 2	1520.3 ± 2
303.15 K	997.071 ± 1	998.395 ± 1	999.643 ± 1	1001.05 ± 1	1002.15 ± 1	1513.1 ± 2	1517.6 ± 2	1522 ± 2	1526.9 ± 2	1530.6 ± 2
308.15 K	995.44 ± 1	996.778 ± 1	998.046 ± 1	999.471 ± 1	1000.53 ± 1	1523.5 ± 2	1527.5 ± 2	1531.5 ± 2	1536.1 ± 2	1539.6 ± 2

OCCOCCOCCO [triethylene glycol] + O
[1]
Settings	mass density, m1 = 0.0965 [kg/m3]	mass density, m1 = 0.2002 [kg/m3]	mass density, m1 = 0.292 [kg/m3]	mass density, m1 = 0.3986 [kg/m3]	mass density, m1 = 0.4988 [kg/m3]	speed of sound, m1 = 0.0965 [m/s]	speed of sound, m1 = 0.2002 [m/s]	speed of sound, m1 = 0.292 [m/s]	speed of sound, m1 = 0.3986 [m/s]	speed of sound, m1 = 0.4988 [m/s]
293.15 K	1000.31 ± 1	1002.46 ± 1	1004.29 ± 1	1006.36 ± 1	1008.22 ± 1	1489.9 ± 2	1498 ± 2	1504.8 ± 2	1513.1 ± 2	1520.5 ± 2
298.15 K	999.126 ± 1	1001.27 ± 1	1003.11 ± 1	1005.14 ± 1	1006.99 ± 1	1503.5 ± 2	1511 ± 2	1517.6 ± 2	1525.4 ± 2	1532.2 ± 2
303.15 K	997.728 ± 1	999.858 ± 1	1001.67 ± 1	1003.69 ± 1	1005.54 ± 1	1514.8 ± 2	1521.8 ± 2	1528 ± 2	1535.1 ± 2	1541.7 ± 2
308.15 K	996.095 ± 1	998.216 ± 1	1000.01 ± 1	1002.02 ± 1	1003.85 ± 1	1525.1 ± 2	1531.3 ± 2	1536.9 ± 2	1543.3 ± 2	1549.4 ± 2

O [water]
[2]
Settings	speed of sound [m/s]
293.15 K	1481.1 ± 2
298.15 K	1495.8 ± 2
308.15 K	1519.1 ± 2
